Results published in patent publication US20220017623A1, “TREATMENT OF CANCER USING A CEA CD3 BISPECIFIC ANTIBODY AND A WNT SIGNALING INHIBITOR” (Hoffmann-La Roche Inc., priority 2019, published 2022).

Experiments:
[1] = tested on: patient derived colorectal cancer organoids (PDOs); test: allogeneic CD8 T cell co-culture assay with patient derived colorectal cancer organoids, GFP confluence growth assessment; assay type: cell-based, human; settings: CEAhi PDO CRC-01; E:T 2:1; 20 nM
Description: In order to assess the sensitivity of patient-derived colorectal cancer organoids (PDOs) to cibisatamab immunotherapy, eight patient derived colorectal cancer organoid lines with various cell surface CEA expression levels were generated and treated with cibisatamab (20 nM) or an untargeted control antibody (20 nM) during 10 days of co-culture with allogeneic CD8 T cells. CD8 T cells were isolated from allogeneic healthy donor peripheral blood mononuclear cells (PBMCs) by magnetic bead sorting and expanded in vitro with IL2 and CD3/CD28 beads for 7-14 days. GFP-tagged CRC PDO cells were then seeded in 96 well plates, T cells were added the following day and the co-cultures were imaged every 2-3 days on an automated 96 well plate fluorescence microscope. […] Co-culture with CD8 T cells without any antibody was included as a further control to enable the identification of alloreactive donor T cells. […]
PDOs were harvested with TrypLE Express and neutralised with DMEM/F12 Ham medium (Sigma Aldrich) with 10% FBS. Cells were filtered through a 70 μm filter, counted and resuspended in phenol-red free RPMI medium (Thermo Fisher) supplemented with 10% FBS (Biosera), 1× Glutamax and 100 units penicillin-streptomycin. […]
The GFP confluence was quantified every 48h-72h over a 10-day period using the GFP confluence application on the Celigo Imaging Cytometer (Nexcelom Bioscience). […]

[2] = tested on: cell surface CEA expression of colorectal cancer organoid lines; test: Wnt/β-catenin pathway inhibition assay: cell surface CEA expression of PDOs by flow cytometry; assay type: cell-based, human; settings: PDOs with mixed CEA expression; 10 μM for 3 days; FACS
Description: Two PDO lines with mixed CEA expression were treated with an inhibitor of WNT signalling: the tankyrase inhibitor compound 21 which inhibits the downstream WNT/β-catenin pathway by stabilizing the β-catenin destruction complex (Elliott et al., Med Chem Comm. 2015; 6(9):1687-92; Mariotti et al., Br J Pharmacol. 2017; 174(24):4611-36).
Cell lines were harvested using enzyme-free Cell Dissociation Buffer (Thermo Fisher) and PDOs with TrypLE Express (Gibco). 2×10^5 cells were stained with 20 nM of the human anti-human CEA antibody CH1A1A (Roche) and 25 ug/ml of the R-Phycoerythrin conjugated secondary antibody AffiniPure F(ab′)2 Fragment Goat Anti-Human IgG, Fcγ Fragment Specific (Stratech). DRAQ7 (Biostatus) staining was included for dead cell exclusion. CEA expression was analysed on a Sony SH800 flow cytometer. Gate boundaries were set at the trough between high and low CEA populations in PDOs with mixed CEA expression and identical gates were used across all samples. The percentage of CEAhi and CEAlo populations and mean fluorescence intensities (MFI) were calculated for each PDO.
10^5 PDO cells/well were seeded in 12 well plates and allowed to attach overnight. […] Cells were harvested using TrypLE Express, stained for CEA with the CH1A1A primary antibody and the R-Phycoerythrin conjugated secondary antibody and analyzed by FACS as described above.

Row | Compound | growth suppression activity of T cells in the presence of antibody [1] | effect on CEA expression and CEAhi subpopulation [2]
1 | DP47-TCB: untargeted antibody used as a negative control [reference compound] | no activity | 
2 | Cc1cc(-c2ncc(CC(=O)Nc3ccc(-c4cnccn4)cn3)cc2C)ccn1 [LGK-974] |  | increase in CEA expression and the CEAhi subpopulation
